Target: T1, 17β-HSD10 (Homo sapiens, UniProt Q99714)
T1 construct: Histev (histidine tag with TEV site) (N, cleaved yes); made in house; host or cells: E. coli BL21-CodonPlus
T1 sequence (Q99714 1-261): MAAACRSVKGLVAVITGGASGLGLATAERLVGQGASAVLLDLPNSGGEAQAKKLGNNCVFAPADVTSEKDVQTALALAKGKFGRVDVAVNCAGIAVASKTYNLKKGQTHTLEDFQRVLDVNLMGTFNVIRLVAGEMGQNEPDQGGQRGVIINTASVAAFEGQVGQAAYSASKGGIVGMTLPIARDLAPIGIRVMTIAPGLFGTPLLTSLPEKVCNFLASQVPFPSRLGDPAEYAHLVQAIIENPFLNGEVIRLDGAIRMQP
Assay: 17β-HSD10 (ABAD) enzyme inhibition assay, NADH oxidation read at 340 nm (primary screen and dose response)
Format: biochemical
Conditions: for EC50 / Max. Effect (%) / Hill Slope / Max. Fit / Min. Fit: recombinant 17βHSD10 enzyme assay; for Hill Slope / Max. Fit / Min. Fit: curve fit
Protocol: Cell pellets of E. coli BL21-CodonPlus cells containing Histev-17β-HSD10 protein were re-suspended for 30 min, 4° C., in lysis buffer (20 mM NaH2PO4, 30 mM imidazole, 500 mM NaCl, 10% (v/v) glycerol, pH 7.5) with the addition of complete ethylenediaminetetraacetic acid (EDTA)-free protease inhibitor tablets (Roche), lysozyme (1 mg/mL), deoxyribonuclease (DNase) (20 μg/mL) and Triton X-100 (0.1% (v/v)). Cells were lysed by passage through a cell disruptor at 30 kPSI (Constant Systems Ltd) and the lysate was cleared by centrifugation (Sorvall Evolution RC, rotor S5-34 55-34 angle, 20500 rpm, 30 min, 4° C.). Cleared lysate was filtered (0.45 μm membrane; Whatman) then applied to a Ni-nitrilotriacetic acid (NTA) (GE Healthcare) column pre-washed with lysis buffer and protein eluted with 300 mM imidazole buffer (20 mM NaH2PO4, 300 mM imidazole, 500 mM NaCl, 10% (v/v) glycerol, pH 7.5). […] Protein digestion and dialysis was carried out at 4° C. for 16 h.
Complete digestion was firstly checked by sodium dodecyl sulfate-polyacrylamide gel electrophoresis (SDS-PAGE), then fully digested protein was passed over a second Ni-column and the flow-through, containing 17β-HSD10 protein, was concentrated using a Vivaspin column (10 kDa MWCO, GE Healthcare) to ˜7 mL before final purification using gel filtration to remove imidazole (Hi-Load 16/60 Superdex 75 prep grade column, GE Healthcare, flow rate 1.5 mL/min). Protein was eluted in gel filtration buffer (10 mM trisaminomethane (Tris-HCl), 150 mM NaCl, 10% glycerol, pH 7.5) and concentrated (Vivaspin column (10 kDa molecular weight cut off (MWCO), GE Healthcare)) to 10 mg/mL. Aliquots (10 μL) were taken and flash frozen in liquid nitrogen before final storage at −80° C.
The assay buffer used contains: 10 mM Tris. HCl (pH 7.4), 150 mM NaCl, 1 mM DTT, 0.005% Tween (polysorbate 20) and 0.01% bovine serum albumin (BSA). As indicated for some experiments the assay buffer was supplemented with 100 units/ml bovine liver catalase. All experiments were conducted in clear bottom 384-well or 1536-well low volume microplates (Corning) with a final assay volume of 20 μL and the reaction progress was monitored by oxidation of NADH as determined by reduction in absorbance at 340 nm read on the EnVision plate reader (PerkinElmer).
For primary screening an endpoint assay format was adopted in which an Echo acoustic liquid dispenser (Labcyte) was used to transfer 20 nL of either reference standard, dimethylsulfoxide (DMSO) control ([…] final assay concentration (FAC)) or test compounds (10 μM FAC) to the assay plate. 10 μL of 17β-HSD10 enzyme in assay buffer (2.5 nM, FAC) was then added to the plates using the Preddator liquid handling robot (Redd and Whyte) and plates were incubated at room temperature for 15 minutes. 10 μL of substrate mixture (100 μM acetoacetyl-CoA and 100 μM NADH, FAC) was added with the Preddator. To start the reaction and the plates were left to incubate for 35 minutes at room temperature before the absorbance at 340 nm was read on the EnVision plate reader (PerkinElmer). For kinetic assay format and dose response follow up experiments the same protocol was adopted but the absorbance at 340 nm was monitored constantly for 45 minutes from immediately after the reaction was started.

SMILES	EC50 [µM]	Max. Effect (%)	ABAD plC50 (primary screening, resynthesized HTS hit compounds)	Hill Slope	Max. Fit	Min. Fit
COc1cccc(-c2ccccc2[C@H]2CCCN2C(=O)c2sccc2OC)c1 [ESC1002433]	> 20	17				
COc1cccc(-c2ccccc2[C@H]2CCCN2C(=O)c2ccc(C)s2)c1 [ESC1002426]	> 20	22				
CCN(C(=O)C1CCOCC1)c1cccc(N(C)Cc2cnc[nH]2)c1 [S2−T6, N-ethyl-N-[3-[1H-imidazol-5-ylmethyl(methyl)amino]phenyl]tetrahydropyran-4-carboxamide]	> 20	18.4				
CC(C)CN(C(=O)c1ccncc1)c1cccc(N(C)Cc2cnc[nH]2)c1 [ESC1002034, N-[3-[1H-imidazol-5-ylmethyl(methyl)amino]phenyl]-N-isobutyl-pyridine-4-carboxamide]	1.58	92	5.8	0.8	106	−3
CC(C)CN(C(=O)c1ccccc1F)c1cccc(NCC(N)=O)c1 [ESC1002571]	> 20	13				
O=C(c1sccc1Cl)N1CCC[C@H]1c1ccccc1-c1ccc(F)c(O)c1 (racemic) [ESC1002775]	0.049	100		1.2	96	0
CC(C)CN(C(=O)c1ccccc1F)c1cncc(N(C)Cc2c[nH]cn2)c1 [ESC1002802]	> 20	20				
COc1ccc(-c2ccc(-c3cn[nH]c3)s2)c(OC)c1OC [ESC1002024, 4-[5-(2,3,4-trimethoxyphenyl)-2-thienyl]-1H-pyrazole]	3.98	89		1.2	101	2
COc1ccc(-c2ccccc2[C@@H]2CCCN2C(=O)c2sccc2Cl)cc1OC (racemic) [ESC1002663]	0.575	93		1.1	95	−8
Cc1ccsc1C(=O)N1CCC[C@@H]1c1ccccc1-c1cnn(C2CCNCC2)c1 [ESC1002466]	18.2	52		1	95	−1
O=C(c1[nH]ncc1Cl)N1CCC[C@H]1c1ccccc1 [S1−T14, 4-chloro-5-{[(2S)-2-phenylpyrrolidin-1-yl]carbonyl}-1H-pyrazole]	> 20	20.8				
O=C(c1ncn[nH]1)N1CCC[C@H]1c1ccccc1 [S1−T3, 5-{[(2S)-2-phenylpyrrolidin-1-yl]carbonyl}-1H-1,2,4-triazole]	> 20	7.1				
COc1cc(-c2ccccc2[C@@H]2CCCN2C(=O)c2sccc2Cl)ccc1F (racemic) [ESC1002699]	0.263	97		1.2	96	5
Cc1ccsc1C(=O)N1CCC[C@H]1c1ccccc1-c1cccc(C(F)(F)F)c1 (racemic) [ESC1002789]		11				
O=C(c1nc(Br)no1)N1CCC[C@H]1c1ccccc1 [S1−T6]	> 20	20.5				
CC(=O)NCCCN(C)c1cccc(N(CC(C)C)C(=O)c2ccccc2F)c1 [ESC1002507]	> 20	4				
Cc1ccsc1C(=O)N1CCC[C@H]1c1ccccc1-c1cccc(C(F)(F)F)c1 (single isomer, unassigned) [ESC1002790]	0.661					
O=C(c1sccc1Cl)N1CCC[C@H]1c1ccccc1-c1cc(O)cc(F)c1 (racemic) [ESC1002776]	0.0407	99		1	96	−1
CC(=O)CN(CC(C)=O)c1cccc(N(CC(C)C)C(=O)c2ccccc2F)c1 [ESC1002724]	> 20	−3				
Cc1ccsc1C(=O)N1CCC[C@H]1c1ccccc1-c1cccc(Cl)c1 (single isomer, unassigned) [ESC1002768]	> 20	12				
Cc1cc(CN(C(=O)c2ccccc2F)c2cccc(N(C)Cc3c[nH]cn3)c2)no1 [ESC1002516, 2-fluoro-N-[3-[1H-imidazol-4-ylmethyl(methyl)amino]phenyl]-N-[(5-methylisoxazol-3-yl)methyl]benzamide]	> 20	46				
Cc1ccc(C(=O)Nc2cccc(N(C)Cc3cnc[nH]3)c2)cc1 [ESC1002054, N-[3-[1H-imidazol-5-ylmethyl(methyl)amino]phenyl]-4-methyl-benzamide]	> 20	3				
O=C(c1cccnc1)N1CCC[C@H]1c1ccccc1 [S1−T12, 3-{[(2S)-2-phenylpyrrolidin-1-yl]carbonyl}pyridine]	> 20	9.1				
COc1cc(-c2ccccc2[C@@H]2CCCN2C(=O)c2sccc2Cl)ccc1C (racemic) [ESC1002700]	0.398	93		1.4	92	−2
Cc1ccc(C(=O)N(c2cccc(N(C)Cc3cnc[nH]3)c2)C(C)C)cc1 [ESC1002080, N-[3-[1H-imidazol-5-ylmethyl(methyl)amino]phenyl]-N-isopropyl-4-methyl-benzamide]	1	96		0.9	102	0
CCN(C(=O)c1ccccn1)c1cccc(N(C)Cc2cnc[nH]2)c1 [S2−T3, N-ethyl-N-[3-[1H-imidazol-5-ylmethyl(methyl)amino]phenyl]pyridine-2-carboxamide]	> 20	20.3				
CCCn1c(C(N)=O)cc2cc(-c3cn[nH]c3)ccc21 [ESC1002019]	3.98	85		1.3	93	2
COc1cc(-c2ccccc2[C@@H]2CCCN2C(=O)c2sccc2Cl)ccn1 (racemic) [ESC1002665]	0.603	95		1	97	−3
